Measured values: patent publication US8759301B2, “Gene fusion targeted therapy” (The Regents of The University of Michigan, priority 2010, dated 2014)
Entries after “also recorded” stand apart in the source; their conditions may differ. Read-outs that look alike come from different tables or passages of the source.

Legend:
AR protein = experiment: Immunoblot of AR protein in VCaP cells; assay type: cell-based
Description: VCaP cells grown in DMEMglutamax (Invitrogen, Carlsbad, Calif.) supplemented with 10% FBS to 80% confluence. Cells were harvested with or without formaldehyde crosslinking, and nuclei were isolated subsequently. After washing with TBS twice, nuclei were lysed and sonicated in RIPA buffer containing protease inhibitors (Roche applied science, Indianapolis, Ind.). […] Mouse monoclonal anti-AR antibody (AR441) from Labvision (Thermo scientific, Fremont, Calif.) was used for Western experiment.

AR mRNA = experiment: Quantitative PCR of AR transcript in VCaP cells; assay type: cell-based
Description: All PCR experiments were performed in triplicates.

AR [1] = biological target: AR (Homo sapiens, UniProt P10275, T878A); conditions: for number of AR binding sites: LNCaP R1881-treated
AR [2] = biological target: AR (Homo sapiens, UniProt P10275); conditions: VCaP, R1881 treated (10 nM, 16 hr, hormone deprived)
Description: For ERG ChIP, LNCaP, VCaP, RWPE+ERG, and RWPE+GUS cells grown in corresponding regular medium were used.
ChIP samples were prepared for sequencing using the Genomic DNA sample prep kit (Illumina) following manufacturers protocols. ChIP-Sequencing was performed using Illumina Genome Analyzer according to standard manufacturer's procedures. The raw sequencing image data were analyzed by the Illumina analysis pipeline, aligned to the unmasked human reference genome (NCBI v36, hg18) using the ELAND software (Illumina) to generate sequence reads of 25-32 bps.
It was first counted how many uniquely mapped reads are there in each sample and the ratio of the two counts was used as the normalizing factor to bring the total number of useable reads to the same level in both samples. Next each uniquely mapped read was extended directionally to form a 200 bp hypothetical DNA fragment (HDF) in each sample. 200 is assumed to be the average length of size-selected DNA pieces during sample preparation (175-225 bp).
Under the null hypothesis of no enrichment in the stimulated sample versus unstimulated samples, reads from both samples are assumed to land on the genome following the same Poisson distribution (after corrected for the read counts in the unstimulated sample). […] The probability of observing the read difference between two samples in each coverage region was calculated numerically. […]

Chain of AR (Homo sapiens, UniProt P10275, T878A) (P10275 whole entry T878A): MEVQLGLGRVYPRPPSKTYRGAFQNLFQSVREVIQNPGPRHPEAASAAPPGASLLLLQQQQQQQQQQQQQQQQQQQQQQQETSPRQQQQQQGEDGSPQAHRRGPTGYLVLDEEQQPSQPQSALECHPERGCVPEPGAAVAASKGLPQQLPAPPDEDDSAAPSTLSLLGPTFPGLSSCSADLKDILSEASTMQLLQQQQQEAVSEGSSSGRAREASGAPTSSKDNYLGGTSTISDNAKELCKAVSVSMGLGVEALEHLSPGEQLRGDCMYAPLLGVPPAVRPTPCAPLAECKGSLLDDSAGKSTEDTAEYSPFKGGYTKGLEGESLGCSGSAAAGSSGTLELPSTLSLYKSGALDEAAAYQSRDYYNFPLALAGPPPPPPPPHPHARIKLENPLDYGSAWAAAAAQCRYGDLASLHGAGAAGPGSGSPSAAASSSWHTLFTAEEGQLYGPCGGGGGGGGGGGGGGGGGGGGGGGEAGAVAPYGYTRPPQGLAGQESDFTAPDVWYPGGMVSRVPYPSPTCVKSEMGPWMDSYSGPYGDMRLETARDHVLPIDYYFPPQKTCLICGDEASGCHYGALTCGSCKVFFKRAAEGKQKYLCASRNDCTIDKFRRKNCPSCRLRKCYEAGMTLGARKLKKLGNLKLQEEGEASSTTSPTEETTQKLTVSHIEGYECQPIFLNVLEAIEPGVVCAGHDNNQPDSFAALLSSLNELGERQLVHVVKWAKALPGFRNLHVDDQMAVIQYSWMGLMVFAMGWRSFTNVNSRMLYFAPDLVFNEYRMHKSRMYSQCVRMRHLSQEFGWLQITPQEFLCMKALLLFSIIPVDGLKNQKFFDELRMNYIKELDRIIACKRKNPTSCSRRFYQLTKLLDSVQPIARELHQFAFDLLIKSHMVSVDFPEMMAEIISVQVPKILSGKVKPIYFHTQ
Chain of AR (Homo sapiens, UniProt P10275) (P10275 whole entry): as the sequence (P10275 whole entry T878A) above, with A878T counted along it

## C[C@]1(O)CC[C@H]2[C@@H]3CCC4=CC(=O)CCC4=C3C=C[C@@]21C [R1881, methyltrienolone]
AR protein
  AR protein expression: inhibits
AR mRNA; VCaP cells
  AR mRNA expression: inhibits; also recorded: repression
AR mRNA; hormone-deprived VCaP, 24 h after treatment, versus vehicle
  repression of AR transcript: over 10 folds
AR [1]; distance to TSS 7 kb
  number of AR binding sites: 145
AR [1]; distance to TSS 8 kb
  number of AR binding sites: 148
AR [1]; distance to TSS 9 kb
  number of AR binding sites: 139
AR [1]; distance to TSS 10 kb
  number of AR binding sites: 117
AR [1]; distance to TSS 11 kb
  number of AR binding sites: 120
AR [1]; distance to TSS 12 kb
  number of AR binding sites: 123
AR [1]; distance to TSS 13 kb
  number of AR binding sites: 134
AR [1]; distance to TSS 14 kb
  number of AR binding sites: 126
AR [1]; distance to TSS 15 kb
  number of AR binding sites: 137
AR [1]; distance to TSS 16 kb
  number of AR binding sites: 114
AR [1]; distance to TSS 17 kb
  number of AR binding sites: 109
AR [1]; distance to TSS 18 kb
  number of AR binding sites: 107
AR [1]; distance to TSS 19 kb
  number of AR binding sites: 109
AR [1]; distance to TSS 20 kb
  number of AR binding sites: 97
AR [1]; distance to TSS 21 kb
  number of AR binding sites: 97
AR [1]; distance to TSS 22 kb
  number of AR binding sites: 98
AR [1]; distance to TSS 23 kb
  number of AR binding sites: 100
AR [1]; distance to TSS 24 kb
  number of AR binding sites: 99
AR [1]; distance to TSS 25 kb
  number of AR binding sites: 105
AR [1]; distance to TSS 26 kb
  number of AR binding sites: 105
AR [1]; distance to TSS 27 kb
  number of AR binding sites: 86
AR [1]; distance to TSS 28 kb
  number of AR binding sites: 90
AR [1]; distance to TSS 29 kb
  number of AR binding sites: 76
AR [1]; distance to TSS 30 kb
  number of AR binding sites: 78
AR [1]; distance to TSS 31 kb
  number of AR binding sites: 101
AR [1]; distance to TSS 32 kb
  number of AR binding sites: 86
AR [1]; distance to TSS 33 kb
  number of AR binding sites: 94
AR [1]; distance to TSS 34 kb
  number of AR binding sites: 79
AR [1]; distance to TSS 35 kb
  number of AR binding sites: 68
AR [1]; distance to TSS 36 kb
  number of AR binding sites: 79
AR [1]; distance to TSS 37 kb
  number of AR binding sites: 88
AR [1]; distance to TSS 38 kb
  number of AR binding sites: 72
AR [1]; distance to TSS 39 kb
  number of AR binding sites: 57
AR [1]; distance to TSS 40 kb
  number of AR binding sites: 65
AR [1]; distance to TSS 41 kb
  number of AR binding sites: 76
AR [1]; distance to TSS 42 kb
  number of AR binding sites: 65
AR [1]; distance to TSS 43 kb
  number of AR binding sites: 73
AR [1]; distance to TSS 44 kb
  number of AR binding sites: 58
AR [1]; distance to TSS 45 kb
  number of AR binding sites: 69
AR [1]; distance to TSS 46 kb
  number of AR binding sites: 56
AR [1]; distance to TSS 47 kb
  number of AR binding sites: 53
AR [1]; distance to TSS 48 kb
  number of AR binding sites: 55
AR [1]; distance to TSS 49 kb
  number of AR binding sites: 61
AR [1]; distance to TSS 50 kb
  number of AR binding sites: 77
AR [1]; distance to TSS 51 kb
  number of AR binding sites: 50
AR [1]; distance to TSS 52 kb
  number of AR binding sites: 54
AR [1]; distance to TSS 53 kb
  number of AR binding sites: 61
AR [1]; distance to TSS 54 kb
  number of AR binding sites: 56
AR [1]; distance to TSS 55 kb
  number of AR binding sites: 41
AR [1]; distance to TSS 56 kb
  number of AR binding sites: 55
AR [1]; distance to TSS 57 kb
  number of AR binding sites: 59
AR [1]; distance to TSS 58 kb
  number of AR binding sites: 60
AR [1]; distance to TSS 59 kb
  number of AR binding sites: 58
AR [1]; distance to TSS 60 kb
  number of AR binding sites: 43
AR [1]; distance to TSS 61 kb
  number of AR binding sites: 36
AR [1]; distance to TSS 62 kb
  number of AR binding sites: 49
AR [1]; distance to TSS 63 kb
  number of AR binding sites: 40
AR [1]; distance to TSS 64 kb
  number of AR binding sites: 52
AR [1]; distance to TSS 65 kb
  number of AR binding sites: 50
AR [1]; distance to TSS 66 kb
  number of AR binding sites: 39
AR [1]; distance to TSS 67 kb
  number of AR binding sites: 37
AR [1]; distance to TSS 68 kb
  number of AR binding sites: 47
AR [1]; distance to TSS 69 kb
  number of AR binding sites: 47
AR [1]; distance to TSS 70 kb
  number of AR binding sites: 45
AR [1]; distance to TSS 71 kb
  number of AR binding sites: 43
AR [1]; distance to TSS 72 kb
  number of AR binding sites: 43
AR [1]; distance to TSS 73 kb
  number of AR binding sites: 57
AR [1]; distance to TSS 74 kb
  number of AR binding sites: 37
AR [1]; distance to TSS 75 kb
  number of AR binding sites: 34
AR [1]; distance to TSS 76 kb
  number of AR binding sites: 39
AR [1]; distance to TSS 77 kb
  number of AR binding sites: 48
AR [1]; distance to TSS 78 kb
  number of AR binding sites: 31
AR [1]; distance to TSS 79 kb
  number of AR binding sites: 37
AR [1]; distance to TSS 80 kb
  number of AR binding sites: 36
AR [1]; distance to TSS 81 kb
  number of AR binding sites: 35
AR [1]; distance to TSS 82 kb
  number of AR binding sites: 49
AR [1]; distance to TSS 83 kb
  number of AR binding sites: 39
AR [1]; distance to TSS 84 kb
  number of AR binding sites: 32
AR [1]; distance to TSS 85 kb
  number of AR binding sites: 39
AR [1]; distance to TSS 86 kb
  number of AR binding sites: 40
AR [1]; distance to TSS 87 kb
  number of AR binding sites: 31
AR [1]; distance to TSS 88 kb
  number of AR binding sites: 34
AR [1]; distance to TSS 89 kb
  number of AR binding sites: 33
AR [1]; distance to TSS 90 kb
  number of AR binding sites: 33
AR [1]; distance to TSS 91 kb
  number of AR binding sites: 41
AR [1]; distance to TSS 92 kb
  number of AR binding sites: 28
AR [1]; distance to TSS 93 kb
  number of AR binding sites: 36
AR [1]; distance to TSS 94 kb
  number of AR binding sites: 27
AR [1]; distance to TSS 95 kb
  number of AR binding sites: 28
AR [1]; distance to TSS 96 kb
  number of AR binding sites: 35
AR [1]; distance to TSS 97 kb
  number of AR binding sites: 27
AR [1]; distance to TSS 98 kb
  number of AR binding sites: 27
AR [1]; distance to TSS 99 kb
  number of AR binding sites: 34
AR [1]; distance to TSS 100 kb
  number of AR binding sites: 19
AR [1]; distance to TSS 101 kb
  number of AR binding sites: 24
AR [1]; distance to TSS 102 kb
  number of AR binding sites: 23
AR [1]; distance to TSS 103 kb
  number of AR binding sites: 28
AR [1]; distance to TSS 104 kb
  number of AR binding sites: 30
AR [1]; distance to TSS 105 kb
  number of AR binding sites: 20
AR [1]; distance to TSS 106 kb
  number of AR binding sites: 31
AR [1]; LNCaP, R1881 treated (10 nM, 16 hr, hormone deprived)
  Enriched Peaks, AR ChIP-Seq: 44536
AR [2]
  Enriched Peaks, AR ChIP-Seq: 21376
